PubChem BioAssay AID248 (DTP/NCI, 2004)
Where “and” joins values, the source holds several entries; their conditions need not be identical. Equal values may be shown once. Inconclusive results and toxic doses are left out. No stated cut-off is given here; in the data, active means T/C of 150% or more; inactive means T/C below 125%. Square brackets hold non-standard residues; d marks the D form. Peptide text beside a SMILES is read from it. * marks the point of attachment. Cbz = O=C(OCc1ccccc1)*; OBn = c1ccc(CO*)cc1; Sar = CNCC(=O)O

Test system: L1210 leukemia ip in BDF1 mice, survival T/C
Assay: NCI In Vivo Anticancer Drug Screen. Data for tumor model L1210 Leukemia (intraperitoneal) in B6D2F1 (BDF1) mice
Conditions: endpoint: mean survival time, higher = longer survival
Outline: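 Tumor was transplanted into mice, which were then dosed with test compound or vehicle alone. Survival was recorded for each group, and the treated figure was expressed relative to the control figure.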

[1] = dose: 100.0 mg/kg/injection, schedule: Q01DX009 (ip), vehicle: Klucel (hydroxypropylcellulose) (HPC)
[2] = dose: 200.0 mg/kg/injection, schedule: Q01DX009 (ip), vehicle: Klucel (hydroxypropylcellulose) (HPC)
[3] = dose: 100.0 mg/kg/injection, schedule: Q04DX003 (ip), vehicle: Klucel (hydroxypropylcellulose) (HPC)
[4] = dose: 200.0 mg/kg/injection, schedule: Q04DX003 (ip), vehicle: Klucel (hydroxypropylcellulose) (HPC)
[5] = dose: 400.0 mg/kg/injection, schedule: Q01DX009 (ip), vehicle: Klucel (hydroxypropylcellulose) (HPC)
[6] = dose: 400.0 mg/kg/injection, schedule: Q04DX003 (ip), vehicle: Klucel (hydroxypropylcellulose) (HPC)
[7] = dose: 100.0 mg/kg/injection, schedule: Q04DX003 (ip), vehicle: saline with Tween-80
[8] = dose: 200.0 mg/kg/injection, schedule: Q04DX003 (ip), vehicle: saline with Tween-80
[9] = dose: 400.0 mg/kg/injection, schedule: Q04DX003 (ip), vehicle: saline with Tween-80
[10] = dose: 50.0 mg/kg/injection, schedule: Q01DX001 (ip), vehicle: saline
[11] = dose: 100.0 mg/kg/injection, schedule: Q01DX001 (ip), vehicle: saline
[12] = dose: 200.0 mg/kg/injection, schedule: Q01DX001 (ip), vehicle: saline
[13] = dose: 100.0 mg/kg/injection, schedule: Q01DX001 (ip), vehicle: carboxymethylcellulose (CMC)
[14] = dose: 200.0 mg/kg/injection, schedule: Q01DX001 (ip), vehicle: carboxymethylcellulose (CMC)
[15] = dose: 400.0 mg/kg/injection, schedule: Q01DX001 (ip), vehicle: carboxymethylcellulose (CMC)

Measured: T/C

O=C1c2cccc3c([N+](=O)[O-])ccc(c23)C(=O)N1CC1CCCO1 (stereo not drawn)
inactive: [1] 108 % of control | [2] 110 % of control

O=C1NC(=O)/C(=C/c2ccccc2)N1
inactive: [1] 96 % of control | [3] 104 % of control | [2] 98 % of control | [4] 96 % of control | [5] 102 % of control | [6] 96 % of control

Cc1ccc(NC(=O)Oc2cccc(C)c2C)cc1NC(=O)Oc1cccc(C)c1C
inactive: [1] 96 % of control | [2] 94 % of control | [5] 93 % of control

Nc1cc2ccc3ccccc3c2c2ccccc12
inactive: dose: 100.0 mg/kg/injection, schedule: Q01DX001 (ip), vehicle: Klucel (hydroxypropylcellulose) (HPC) 110 % of control | dose: 130.0 mg/kg/injection, schedule: Q01DX001 (ip), vehicle: Klucel (hydroxypropylcellulose) (HPC) 94 % of control

CN(CC(=O)OCc1ccccc1)C(=O)CNC(=O)OCc1ccccc1 (Cbz-Gly-[Sar]-OBn)
inactive: [7] 95 % of control | [8] 98 % of control | [9] 98 % of control

COP(=O)(CN1C(=O)c2ccccc2C1=O)c1ccccc1 (stereo not drawn)
inactive: dose: 100.0 mg/kg/injection, schedule: Q04DX002 (ip), vehicle: Klucel (hydroxypropylcellulose) (HPC) 94 % of control | dose: 200.0 mg/kg/injection, schedule: Q04DX002 (ip), vehicle: Klucel (hydroxypropylcellulose) (HPC) 94 % of control | dose: 400.0 mg/kg/injection, schedule: Q04DX002 (ip), vehicle: Klucel (hydroxypropylcellulose) (HPC) 101 % of control

CCCCCC(C)(O)CCC (stereo not drawn)
inactive: [10] 93 % of control | [11] 93 % of control | [12] 93 % of control

CCN(CC)C(=S)[S][Sn]([c]1ccccc1)([c]1ccccc1)[c]1ccccc1
inactive: dose: 100.0 mg/kg/injection, schedule: Q01DX001 (ip), vehicle: steriod suspending solution 109 % of control | dose: 200.0 mg/kg/injection, schedule: Q01DX001 (ip), vehicle: steriod suspending solution 98 % of control | dose: 400.0 mg/kg/injection, schedule: Q01DX001 (ip), vehicle: steriod suspending solution 98 % of control

Nc1ccc(Oc2ccc(S(=O)(=O)O)cc2)cc1
inactive: dose: 100.0 mg/kg/injection, schedule: Q04DX003 (ip), vehicle: saline 93 % of control | dose: 200.0 mg/kg/injection, schedule: Q04DX003 (ip), vehicle: saline 94 % of control | dose: 400.0 mg/kg/injection, schedule: Q04DX003 (ip), vehicle: saline 94 % of control

CC(=O)Nc1ccc(NC(=O)Nc2cc(C)ccc2C)cc1
inactive: dose: 25.0 mg/kg/injection, schedule: Q04DX003 (ip), vehicle: saline with Tween-80 91 % of control | dose: 50.0 mg/kg/injection, schedule: Q04DX003 (ip), vehicle: saline with Tween-80 89 % of control | dose: 100.0 mg/kg/injection, schedule: Q01DX001 (ip), vehicle: saline with Tween-80 91 % of control | dose: 100.0 mg/kg/injection, schedule: Q01DX009 (ip), vehicle: saline with Tween-80 92 % of control and 86 % of control | dose: 100.0 mg/kg/injection, schedule: Q04DX002 (ip), vehicle: saline with Tween-80 90 % of control and 91 % of control | [7] 91 % of control | dose: 200.0 mg/kg/injection, schedule: Q01DX001 (ip), vehicle: saline with Tween-80 89 % of control | dose: 200.0 mg/kg/injection, schedule: Q01DX009 (ip), vehicle: saline with Tween-80 99 % of control and 91 % of control | dose: 200.0 mg/kg/injection, schedule: Q04DX002 (ip), vehicle: saline with Tween-80 87 % of control and 90 % of control | dose: 400.0 mg/kg/injection, schedule: Q01DX001 (ip), vehicle: saline with Tween-80 89 % of control | dose: 400.0 mg/kg/injection, schedule: Q01DX009 (ip), vehicle: saline with Tween-80 92 % of control and 100 % of control | dose: 400.0 mg/kg/injection, schedule: Q04DX002 (ip), vehicle: saline with Tween-80 89 % of control and 91 % of control | [9] 87 % of control

COC(=O)NNC(=O)OC
inactive: dose: 50.0 mg/kg/injection, schedule: Q01DX001 (ip), vehicle: carboxymethylcellulose (CMC) 89 % of control | [13] 94 % of control | [1] 97 % of control | [14] 97 % of control | [2] 100 % of control | [15] 103 % of control | [5] 103 % of control

Cc1cccc(Nc2cc(C)nc(N)n2)c1
inactive: dose: 25.0 mg/kg/injection, schedule: Q01DX Z (ip), vehicle: methylcellulose (MC) 105 % of control | dose: 50.0 mg/kg/injection, schedule: Q01DX Z (ip), vehicle: methylcellulose (MC) 100 % of control

Cn1c(=O)c2[nH]c(CCC3CCCC3)nc2n(C)c1=O
inactive: [10] 98 % of control | [11] 96 % of control | [12] 96 % of control | dose: 400.0 mg/kg/injection, schedule: Q01DX001 (ip), vehicle: saline 101 % of control

CCCC(=O)CC(C)=O.CCCC(=O)CC(C)=O.[Cu]
inactive: dose: 5.0 mg/kg/injection, schedule: Q04DX003 (ip), vehicle: Klucel (hydroxypropylcellulose) (HPC) 95 % of control | dose: 6.0 mg/kg/injection, schedule: Q01DX009 (ip), vehicle: Klucel (hydroxypropylcellulose) (HPC) 92 % of control | dose: 10.0 mg/kg/injection, schedule: Q04DX003 (ip), vehicle: Klucel (hydroxypropylcellulose) (HPC) 98 % of control | dose: 12.0 mg/kg/injection, schedule: Q01DX009 (ip), vehicle: Klucel (hydroxypropylcellulose) (HPC) 101 % of control | dose: 20.0 mg/kg/injection, schedule: Q04DX003 (ip), vehicle: Klucel (hydroxypropylcellulose) (HPC) 96 % of control | dose: 40.0 mg/kg/injection, schedule: Q04DX003 (ip), vehicle: Klucel (hydroxypropylcellulose) (HPC) 93 % of control

C=C1CCCC(O)CCC1
inactive: dose: 75.0 mg/kg/injection, schedule: Q01DX001 (ip), vehicle: other 102 % of control | dose: 150.0 mg/kg/injection, schedule: Q01DX001 (ip), vehicle: other 98 % of control | dose: 300.0 mg/kg/injection, schedule: Q01DX001 (ip), vehicle: other 96 % of control

CNC(=O)N/N=C(C)\C=N\NC(=O)NC
inactive: dose: 75.0 mg/kg/injection, schedule: Q01DX001 (ip), vehicle: saline 97 % of control | dose: 150.0 mg/kg/injection, schedule: Q01DX001 (ip), vehicle: saline 108 % of control | dose: 300.0 mg/kg/injection, schedule: Q01DX001 (ip), vehicle: saline 92 % of control

COc1ccc(NC(=O)Nc2ccccc2Cl)cc1
inactive: [1] 96 % of control | [3] 90 % of control | [2] 95 % of control | [4] 92 % of control | [5] 91 % of control | [6] 90 % of control

CSc1nc(NN(C)C)c2[nH]c(C)nc2n1
inactive: [11] 92 % of control | [12] 97 % of control

O=C(O)c1ccc(CBr)c(CBr)c1
inactive: dose: 6.25 mg/kg/injection, schedule: Q04DX003 (ip), vehicle: saline with Tween-80 93 % of control | dose: 12.5 mg/kg/injection, schedule: Q04DX003 (ip), vehicle: saline with Tween-80 94 % of control

C1CN2CCN1CC2.[Cl][Ni+][Cl]
inactive: dose: 1.56 mg/kg/injection, schedule: Q01DX009 (ip), vehicle: saline 101 % of control | dose: 2.0 mg/kg/injection, schedule: Q04DX003 (ip), vehicle: saline 109 % of control | dose: 3.12 mg/kg/injection, schedule: Q01DX009 (ip), vehicle: saline 101 % of control | dose: 4.0 mg/kg/injection, schedule: Q04DX003 (ip), vehicle: saline 106 % of control | dose: 6.25 mg/kg/injection, schedule: Q01DX009 (ip), vehicle: saline 94 % of control | dose: 8.0 mg/kg/injection, schedule: Q04DX003 (ip), vehicle: saline 97 % of control | dose: 12.5 mg/kg/injection, schedule: Q01DX009 (ip), vehicle: saline 92 % of control | dose: 16.0 mg/kg/injection, schedule: Q04DX003 (ip), vehicle: saline 105 % of control

CC1=NNC(=O)C1Br (stereo not drawn)
inactive: [13] 105 % of control | [14] 102 % of control | [15] 100 % of control

CC(=O)OCC1OC(C(N)=O)C(OC(C)=O)C1OC(C)=O (stereo not drawn)
inactive: dose: 100.0 mg/kg/injection, schedule: Q01DX001 (ip), vehicle: other 102 % of control | [7] 93 % of control | dose: 200.0 mg/kg/injection, schedule: Q01DX001 (ip), vehicle: other 98 % of control | [8] 104 % of control | dose: 400.0 mg/kg/injection, schedule: Q01DX001 (ip), vehicle: other 98 % of control | [9] 98 % of control
